Where a SMILES comes first, the peptide text is derived from it. [ ]: non-standard residue; d: D form. The star is where a group is joined. ξ: configuration not given here. ξV = CC(C)C(N)C(=O)O; BrAc = O=C(CBr)*
Legend:
[1] = system: ARH-77/Dox doxorubicin-resistant myeloma cell line; test: Cell proliferation (CellTiter 96 AQueous MTS/PMS), ARH-77/Dox; assay type: cell-based; settings: Homo sapiens, 72 hours of incubation, read-out: CI50 for various cell lines (nM) ARH-77/Dox
Description: (§1) The effects of the compounds of the invention on the proliferation of cancer cells were studied on various human cancer cell lines of various tissue origins (MCF-7: breast cancer, MCF-7/adr adriamycin-resistant breast cancer, ARH-77: myeloma, ARH-77/Dox: doxorubicin (other name for adriamycin)-resistant myeloma, HL-60: acute promyelocytic leukaemia, HL-60/R10: doxorubicin-resistant acute promyelocytic leukaemia). The cancer cells used for this study were incubated at 37° C. in the presence of one of the compounds of the invention added to the culture medium at various concentrations.
(§2) The cancer cell lines originate from the ATCC (American Type Culture Collection) in the case of MCF-7, ARH-77 and HL-60, from Pharmacell (Paris, France) for HL-60/R10, from Oncodesign (Dijon, France) for ARH-77/Dox and from the Pitié Salpetrière Hospital for MCF-7/adr. They were cultivated in a RPMI 1640 medium containing 2 mM L-glutamine and supplemented with 10% foetal calf serum. All the cell lines were maintained in culture at 37° C. in a moist atmosphere containing 5% CO2. Cell proliferation was evaluated using the “CellTiter 96® AQueous” reagent (Promega, Wis., USA) while adhering to the manufacturer's instructions. The cells were seeded in 96-well culture plates in a proportion of from 5,000 to 10,000 cells per well in 200 μl of culture medium. After 24 hours of preincubation at 37° C., the compounds of the invention dissolved in dimethyl sulphoxide (DMSO) were added individually to each of the wells in a proportion of 2 μl per well. After 72 hours of incubation at 37° C. in a moist atmosphere containing 5% CO2, 40 μL of a MTS/PMS ([3-(4,5-dimethylthiazol-2-yl)-5-(3-carboxymethoxyphenyl)-2-(4-sulphophenyl)-2H-tetrazolium phenazine methosulphate) solution were added to each well.

[2] = system: MCF-7 breast cancer cell line; test: Cell proliferation (CellTiter 96 AQueous MTS/PMS), MCF-7; assay type: cell-based; settings: MCF7; for IC50: Homo sapiens, MCF-7, 72 hours of incubation, concentration that induces the death of 50% of the cells, read-out: CI50 for various cell lines (nM) MCF-7
Description: as §1, §2

[3] = system: HL-60 acute promyelocytic leukaemia cell line; test: Cell proliferation (CellTiter 96 AQueous MTS/PMS), HL-60; assay type: cell-based, human; settings: for IC50: Homo sapiens, HL-60, 72 hours of incubation, read-out: CI50 for various cell lines (nM) HL-60
Description: as §1, §2

[4] = system: MCF-7/adr adriamycin-resistant breast cancer cell line; test: Cell proliferation (CellTiter 96 AQueous MTS/PMS), MCF-7/adr; assay type: cell-based; settings: for IC50: Homo sapiens, NCI/ADR-RES, MCF-7/adr, 72 hours of incubation, concentration that induces the death of 50% of the cells, read-out: CI50 for various cell lines (nM) MCF-7/adr
Description: as §1, §2

[5] = system: HL-60/R10 doxorubicin-resistant acute promyelocytic leukaemia cell line; test: Cell proliferation (CellTiter 96 AQueous MTS/PMS), HL-60/R10; assay type: cell-based, human; settings: for IC50: Homo sapiens, HL-60/R10, 72 hours of incubation, read-out: CI50 for various cell lines (nM) HL-60/R10
Description: as §1, §2

[6] = system: ARH-77 myeloma cell line; test: Cell proliferation (CellTiter 96 AQueous MTS/PMS), ARH-77; assay type: cell-based; settings: Homo sapiens, 72 hours of incubation, read-out: CI50 for various cell lines (nM) ARH-77
Description: as §1, §2

| SMILES | IC50 [2] [nM] | IC50 [3] [nM] | IC50 [4] [nM] | IC50 [5] [nM] | also measured |
| --- | --- | --- | --- | --- | --- |
| C#CC(=O)N(c1cccc(C(F)(F)F)c1)C(C(=O)NCc1ccccc1)c1cccs1 (stereo not drawn) [Compound 1, Propynoic Acid (benzylcarbamoylthiophen-2-yl-methyl)-(3-trifluoromethylphenyl)amide] | 224 | 1340 | 1.6 | 32 | IC50 [1]: 12 nM; IC50 [6]: 46 nM |
| C#CC(=O)N(c1cccc(C(F)(F)F)c1)C(C(=O)NC1CCCCC1)c1cccs1 (stereo not drawn) [Compound 3, Propynoic Acid (cyclohexylcarbamoylthiophen-2-yl-methyl)-(3-trifluoromethylphenyl)amide] | 275 | 2960 | 2.6 | 46 | IC50 [1]: 5 nM; IC50 [6]: 58 nM |
| C#CC(=O)N(c1ccc(C(F)(F)F)cc1)C(C(=O)NCc1ccccc1)c1cccs1 (stereo not drawn) [Compound 4, Propynoic Acid (benzylcarbamoylthiophen-2-yl-methyl)-(4-trifluoromethylphenyl)amide] | – | 1630 | 0.9 | 76 | IC50 [1]: 25 nM; IC50 [6]: 103 nM |
| COc1ccc(CNC(=O)C(C)(C)N(C(=O)CCl)c2ccc(F)cc2)cc1 [Compound 186, 2-[(2-Chloro-acetyl)-(4-fluoro-phenyl)-amino]-N-(4-methoxy-benzyl)-2-methyl-propionamide] | – | 362 | – | 78 | – |
| CC(C)c1ccc(N(C(=O)CCl)C(C(=O)NC2CCCCC2)c2ccc(OCCCN3CCN(C)CC3)cc2)c(F)c1 (stereo not drawn) [Compound 192, 2-[(2-Chloro-acetyl)-(2-fluoro-4-isopropyl-phenyl)-amino]-N-cyclohexyl-2-{4-[3-(4-methyl-piperazin-1-yl)-propoxy]-phenyl}-acetamide] | – | 524 | – | 140 | – |
| C#CC(=O)N(c1cccc(C(F)(F)F)c1)C(C(=O)NCc1ccccc1)c1ccc(C)s1 (stereo not drawn) [Compound 21, Propynoic Acid [benzylcarbamoyl-(5-methylthiophen-2-yl)-methyl]-(3-trifluoromethylphenyl)amide] | – | 2020 | – | 43 | IC50 [1]: 6 nM; IC50 [6]: 60 nM |
| Cc1c(Cl)cccc1N(C(=O)CCl)C(C)(C)C(=O)NCc1ccc(F)cc1 [Compound 188, 2-[(2-Chloro-acetyl)-(3-chloro-2-methyl-phenyl)-amino]-N-(4-fluoro-benzyl)-2-methyl-propionamide] | – | 2500 | – | 176 | – |
| COC(=O)CCNC(=O)C(c1cccs1)N(C(=O)CCl)c1cccc(C(F)(F)F)c1 (stereo not drawn) [Compound 139, 3-{2-[(2-Chloroacetyl)-(3-trifluoromethylphenyl)amino]-2-thiophen-2-yl-acetylamino}propionic acid methyl ester] | 468 | – | 63 | – | – |
| N#Cc1cccc(N(C(=O)CCl)C(C(=O)NC2CCCCC2)c2cccs2)c1 (stereo not drawn) [Compound 121, 2-[(2-Chloroacetyl)-(3-cyanophenyl)amino]-N-cyclohexyl-2-thiophen-2-yl-acetamide] | 252 | – | 70 | – | – |
| C#CC(=O)N(c1ccc(C#N)cc1)C(C(=O)NC1CCCCC1)c1cccs1 (stereo not drawn) [Compound 53, Propynoic Acid (4-cyanophenyl)(cyclohexylcarbamoylthiophen-2-yl-methyl)amide] | 372 | – | 2.8 | – | – |
| C#CC(=O)N(c1cccc(-c2ccnc(C)n2)c1)C(C(=O)NC1CCCCC1)c1cccs1 (stereo not drawn) [Compound 38, Propynoic Acid (cyclohexylcarbamoylthiophen-2-yl-methyl)-[3-(2-methylpyrimidin-4-yl)-phenyl]amide] | 272 | – | 1.9 | – | – |
| O=C(NC1CCCCC1)C(c1cccs1)N(C(=O)CCl)c1ccc(O)cc1 (stereo not drawn) [Compound 128, 2-[(2-Chloroacetyl)-(4-hydroxyphenyl)amino]-N-cyclohexyl-2-thiophen-2-yl-acetamide] | 133 | – | 86 | – | – |
| C#CC(=O)N(c1ccc(Cl)cc1)C(C(=O)NC1CCCCC1)c1cccs1 (stereo not drawn) [Compound 41, Propynoic Acid (4-chlorophenyl)(cyclohexylcarbamoylthiophen-2-yl-methyl)amide] | 158 | – | 3.2 | – | – |
| CC(C)C(NC(=O)CBr)C(=O)NCC(=O)O (stereo not drawn) [BADLG, reference compound] (BrAc-[ξV]-Gly-OH) | – | – | – | – | cytotoxic activity (concentration at which detected) ([2]; no cytotoxic activity detected for concentrations below 10 μM, same conditions as above): ≥ 10 µM; cytotoxic activity (concentration at which detected) ([3]; HL60, no cytotoxic activity detected for concentrations below 10 μM, same conditions as above): ≥ 10 µM; cytotoxic activity (concentration at which detected) ([4]; MCF7/adr, no cytotoxic activity detected for concentrations below 10 μM, same conditions as above): ≥ 10 µM; cytotoxic activity (concentration at which detected) ([5]; HL60/R10, no cytotoxic activity detected for concentrations below 10 μM, same conditions as above): ≥ 10 µM |
| CN(C(=O)N1CCN(C(=O)C(c2cccs2)N(C(=O)CCl)c2cccc(C(F)(F)F)c2)CC1)c1ccccc1 (stereo not drawn) [Compound 204, 4-{2-[(2-Chloroacetyl)-(3-trifluoromethylphenyl)-amino]-2-thiophen-2-yl-acetyl}piperazine-1-carboxylic acid methylphenyl-amide] | 741 | – | 89 | – | – |
| C#CC(=O)N(c1ccc(C(F)(F)F)cc1)C(C(=O)NC1CCCCC1)c1cccs1 (stereo not drawn) [Compound 2, Propynoic Acid (cyclohexylcarbamoylthiophen-2-yl-methyl)-(4-trifluoromethylphenyl)amide] | 150 | 2080 | 0.7 | 95 | IC50 [1]: 6 nM; IC50 [6]: 92 nM |
| CC(C)c1cccc(N(C(=O)CCl)C(C(=O)N2CCN(C3CCCCC3)CC2)c2cccs2)c1 (stereo not drawn) [Compound 199] | 1860 | – | 23 | – | – |
| C#CC(=O)N(c1cccc(C(F)(F)F)c1)C(C(=O)NC1CCCCC1)c1cccc(F)c1F (stereo not drawn) [Compound 106, Propynoic Acid [cyclohexylcarbamoyl-(2,3-difluorophenyl)methyl]-(3-trifluoromethylphenyl)amide] | 260 | – | 1 | – | – |
| C#CC(=O)N(c1cccc(C(F)(F)F)c1)C(C(=O)NC1CCCCC1)c1ccccc1F (stereo not drawn) [Compound 72, Propynoic Acid [cyclo hexylcarbamoyl-(2-fluorophenyl)methyl]-(3-trifluoromethylphenyl)amide] | 619 | – | 3 | – | – |

Reference: US8519188B2, “Compounds which can be used for the treatment of cancers” (Marc-Henry Pitty, priority 2008, dated 2013)
